Laboratory results taken from patent US12528832B2, “Crystalline or amorphous form of Bcl-2/Bcl-xL inhibitor compound or its salts” (ASCENTAGE PHARMA (SUZHOU) CO., LTD., priority 2020, dated 2026).
Where a name gives a salt, the structure may show the parent alone.

Legend:
[1] = Stability test of amorphous form XIV (40° C., high humidity 92.5% RH, light; content, related substances); assay type: physicochemical
Protocol: Pack the amorphous sample with nitrogen, shading, and moisture-proof, and place it under 40° C., high humidity 92.5% RH, light conditions, and take samples at 0 days/5 days/10 days to investigate its content, related substances and crystal forms (light conditions: total illuminance≥1.2×106 Lux·hr, near ultraviolet energy≥200 w·hr/m2).

[2] = Hygroscopicity test, dynamic water adsorption (DVS); assay type: physicochemical
Protocol: Take about 10 mg of the Amorphous form XIV sample of the compound of formula I for dynamic water adsorption (DVS) test.

[3] = Stability test of salt form screening (25° C., R.T./75% RH, light; HPLC, XRPD); assay type: physicochemical
Protocol: Take an appropriate amount of the compound into an 8 mL glass bottle, and then place it at room temperature (25° C., open), high humidity (room temperature/75% RH, open) and light (room temperature, white light: 6980 lux, UV 282 μW/cm2). Take samples for testing on the 5th, 10th, and 30th day (HPLC, XRPD).

[4] = Physicochemical stability of crystalline form VI, one week storage (HPLC purity, XRPD form)
[5] = 10 Days, high humidity 92.5% RH
[6] = Light, room temperature, 5 Days
[7] = Light, room temperature, 10 Days

Cc1c(S(C)(=O)=O)c(-c2cc(F)cc(N3CCN(c4ccc(NS(=O)(=O)c5ccc(N[C@H](CCN6CCC(C(=O)OCCCP(=O)(O)O)CC6)CSc6ccccc6)c(S(=O)(=O)C(F)(F)F)c5)cc4)CC3)c2)c(-c2ccc(Cl)cc2)n1C(C)C [Amorphous XIV]
physical and chemical stability (summary statement) [1]: good physical and chemical stability | Content(%) ([1]; 0 Days): 99.5% | Total impurities (%) ([1]; 0 Days): 0.39% | Content(%) ([1]; 5 Days, 40° C.): 100.3% | Total impurities (%) ([1]; 5 Days, 40° C.): 0.59% | Content(%) ([1]; 5 Days, high humidity 92.5% RH): 100.7% | Total impurities (%) ([1]; 5 Days, high humidity 92.5% RH): 0.37% | Content(%) ([1]; 5 Days, light): 100.4% | Total impurities (%) ([1]; 5 Days, light): 0.43% | Content(%) ([1]; 10 Days, 40° C.): 99.7% | Total impurities (%) ([1]; 10 Days, 40° C.): 0.64% | Content(%) [1, 5]: 99.7% | Total impurities (%) [1, 5]: 0.39% | Content(%) ([1]; 10 Days, light): 100.1% | Total impurities (%) ([1]; 10 Days, light): 0.41% | stability under high humidity and light conditions ([1]; packed with nitrogen, shading, moisture-proof): stable | stability to heat ([1]; packed with nitrogen, shading, moisture-proof, 40° C.): sensitive to heat | Hygroscopicity classification ([2]; DVS, 80% RH): Hygroscopic | Moisture gain (80% RH) ([2]; DVS, 80% RH): 4.83% | water absorption during storage ([2]; conclusion from DVS): easily absorb water

Cc1c(S(C)(=O)=O)c(-c2cc(F)cc(N3CCN(c4ccc(NS(=O)(=O)c5ccc(N[C@H](CCN6CCC(C(=O)OCCCP(=O)(O)O)CC6)CSc6ccccc6)c(S(=O)(=O)C(F)(F)F)c5)cc4)CC3)c2)c(-c2ccc(Cl)cc2)n1C(C)C [Amorphous form XII of potassium salt]
Total impurities (%) ([3]; 25° C., open, 5 Days): 1.63% | Total impurities (%) ([3]; 25° C., open, 10 Days): 1.58% | Total impurities (%) ([3]; 25° C., open, 30 Days): 1.86% | Total impurities (%) ([3]; Initial, 0 Days): 1.40% | Total impurities (%) [3, 6]: 2.09% | Total impurities (%) [3, 7]: 2.69% | Total impurities (%) ([3]; R.T./75% RH, open, 5 Days): 2.25% | Total impurities (%) ([3]; R.T./75% RH, open, 10 Days): 2.98% | Total impurities (%) ([3]; R.T./75% RH, open, 30 Days): 6.11%

Cc1c(S(C)(=O)=O)c(-c2cc(F)cc(N3CCN(c4ccc(NS(=O)(=O)c5ccc(N[C@H](CCN6CCC(C(=O)OCCCP(=O)(O)O)CC6)CSc6ccccc6)c(S(=O)(=O)C(F)(F)F)c5)cc4)CC3)c2)c(-c2ccc(Cl)cc2)n1C(C)C [Amorphous form XIII of sodium salt]
Total impurities (%) ([3]; 25° C., open, 5 Days): 1.89% | Total impurities (%) ([3]; 25° C., open, 10 Days): 1.94% | Total impurities (%) ([3]; 25° C., open, 30 Days): 2.29% | Total impurities (%) ([3]; Initial, 0 Days): 1.65% | Total impurities (%) [3, 6]: 2.20% | Total impurities (%) [3, 7]: 3.55% | Total impurities (%) ([3]; R.T./75% RH, open, 5 Days): 2.45% | Total impurities (%) ([3]; R.T./75% RH, open, 10 Days): 3.08% | Total impurities (%) ([3]; R.T./75% RH, open, 30 Days): 6.31%

Cc1c(S(C)(=O)=O)c(-c2cc(F)cc(N3CCN(c4ccc(NS(=O)(=O)c5ccc(N[C@H](CCN6CCC(C(=O)OCCCP(=O)(O)O)CC6)CSc6ccccc6)c(S(=O)(=O)C(F)(F)F)c5)cc4)CC3)c2)c(-c2ccc(Cl)cc2)n1C(C)C [Amorphous form XV of maleate salt]
Total impurities (%) ([3]; 25° C., open, 5 Days): 0.79% | Total impurities (%) ([3]; 25° C., open, 10 Days): 0.89% | Total impurities (%) ([3]; 25° C., open, 30 Days): 1.23% | Total impurities (%) ([3]; Initial, 0 Days): 0.73% | Total impurities (%) [3, 6]: 1.33% | Total impurities (%) [3, 7]: 1.94% | Total impurities (%) ([3]; R.T./75% RH, open, 5 Days): 1.59% | Total impurities (%) ([3]; R.T./75% RH, open, 10 Days): 2.59% | Total impurities (%) ([3]; R.T./75% RH, open, 30 Days): 7.00%

Cc1c(S(C)(=O)=O)c(-c2cc(F)cc(N3CCN(c4ccc(NS(=O)(=O)c5ccc(N[C@H](CCN6CCC(C(=O)OCCCP(=O)(O)O)CC6)CSc6ccccc6)c(S(=O)(=O)C(F)(F)F)c5)cc4)CC3)c2)c(-c2ccc(Cl)cc2)n1C(C)C [Amorphous form XVI of meglumine salt]
physical and chemical stability (summary statement) [3]: good physical and chemical stability | Total impurities (%) ([3]; 25° C., open, 5 Days): 0.95% | Total impurities (%) ([3]; 25° C., open, 10 Days): 0.89% | Total impurities (%) ([3]; 25° C., open, 30 Days): 0.88% | Total impurities (%) ([3]; Initial, 0 Days): 0.83% | Total impurities (%) [3, 6]: 1.33% | Total impurities (%) [3, 7]: 1.74% | Total impurities (%) ([3]; R.T./75% RH, open, 5 Days): 1.36% | Total impurities (%) ([3]; R.T./75% RH, open, 10 Days): 1.86% | Total impurities (%) ([3]; R.T./75% RH, open, 30 Days): 4.95%

Cc1c(S(C)(=O)=O)c(-c2cc(F)cc(N3CCN(c4ccc(NS(=O)(=O)c5ccc(N[C@H](CCN6CCC(C(=O)OCCCP(=O)(O)O)CC6)CSc6ccccc6)c(S(=O)(=O)C(F)(F)F)c5)cc4)CC3)c2)c(-c2ccc(Cl)cc2)n1C(C)C [Crystal form VI]
physical and chemical stability (summary statement) [4]: good physical and chemical stability | change of purity and crystal form ([4]; 25° C./60% RH and 40° C./75% RH for one week): did not change significantly | HPLC purity (Peak area %) ([4]; 25° C./60% RH, one week): 99.01 Peak area % | Solid crystal form ([4]; 25° C./60% RH, one week): Crystal form VI | HPLC purity (Peak area %) ([4]; 40° C./75% RH, one week): 99.06 Peak area % | Solid crystal form ([4]; 40° C./75% RH, one week): Crystal form VI | HPLC purity (Peak area %) ([4]; Initial sample): 99.02 Peak area % | Solid crystal form ([4]; Initial sample): Crystal form VI
